The results in this text go back to PubChem BioAssay AID248 (DTP/NCI, 2004).

SMILES strings stand for the structures. Several values for one entry are separate records, joined by “and”; a condition that tells them apart may be missing. Equal values may be shown once. Inconclusive results and toxic doses are left out.

This experiment deals with L1210 leukemia ip in BDF1 mice, survival T/C. In words: NCI In Vivo Anticancer Drug Screen. Data for tumor model L1210 Leukemia (intraperitoneal) in B6D2F1 (BDF1) mice. The conditions noted are these: higher = longer survival. In short, it runs like this:
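Tumor was transplanted into mice, which were then dosed with test compound or vehicle alone. Survival was recorded for each group, and the treated figure was expressed relative to the control figure.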

The mark [1] stands for this setting: endpoint: mean survival time, dose: 100.0 mg/kg/injection, schedule: Q01DX001 (ip), vehicle: saline.
The mark [2] stands for this setting: endpoint: mean survival time, dose: 200.0 mg/kg/injection, schedule: Q01DX001 (ip), vehicle: saline.
The mark [3] stands for this setting: endpoint: mean survival time, dose: 100.0 mg/kg/injection, schedule: Q04DX003 (ip), vehicle: Klucel (hydroxypropylcellulose) (HPC).
The mark [4] stands for this setting: endpoint: mean survival time, dose: 200.0 mg/kg/injection, schedule: Q04DX003 (ip), vehicle: Klucel (hydroxypropylcellulose) (HPC).
The mark [5] stands for this setting: endpoint: mean survival time, dose: 400.0 mg/kg/injection, schedule: Q04DX003 (ip), vehicle: Klucel (hydroxypropylcellulose) (HPC).
Where [6] appears, read: endpoint: mean survival time, dose: 100.0 mg/kg/injection, schedule: Q01DX009 (ip), vehicle: Klucel (hydroxypropylcellulose) (HPC).
The mark [7] stands for this setting: endpoint: mean survival time, dose: 200.0 mg/kg/injection, schedule: Q01DX009 (ip), vehicle: Klucel (hydroxypropylcellulose) (HPC).

Consider `N#Cc1cc[n+](Cc2ccc([N+](=O)[O-])cc2)cc1`, for which the T/C by setting is: under setting [1], 104 % of control; under setting [2], 98 % of control.
`O=C(O)CC(c1ccccc1)C(CC(=O)O)c1ccccc1` (configuration not stated): the T/C is 91 % of control under setting [3], 95 % of control under setting [4] and 96 % of control under setting [5].
On to `OC1CCCN(Cc2ccccc2)C1` (configuration not stated), for which the T/C under setting [1] is 107 % of control and the T/C under setting [2] is 96 % of control.
Take `Cc1ccc(/C=N\N=C(\N)N/N=C/c2ccc(C)cc2)cc1`: the T/C was 95 % of control (endpoint: mean survival time, dose: 15.0 mg/kg/injection, schedule: Q01DX Z (ip), vehicle: carboxymethylcellulose (CMC)); 93 % of control (endpoint: mean survival time, dose: 30.0 mg/kg/injection, schedule: Q01DX Z (ip), vehicle: carboxymethylcellulose (CMC)); 87 % of control (endpoint: mean survival time, dose: 60.0 mg/kg/injection, schedule: Q01DX Z (ip), vehicle: carboxymethylcellulose (CMC)); 96 % of control (endpoint: mean survival time, dose: 120.0 mg/kg/injection, schedule: Q01DX Z (ip), vehicle: carboxymethylcellulose (CMC)); 101 % of control (endpoint: mean survival time, dose: 120.0 mg/kg/injection, schedule: Q01DX Z (oral), vehicle: carboxymethylcellulose (CMC)); 101 % of control (endpoint: mean survival time, dose: 240.0 mg/kg/injection, schedule: Q01DX Z (oral), vehicle: carboxymethylcellulose (CMC)). In addition, the T/C reads like this: (endpoint: mean survival time, dose: 480.0 mg/kg/injection, schedule: Q01DX Z (oral), vehicle: carboxymethylcellulose (CMC)) 96 % of control; (endpoint: mean survival time, dose: 960.0 mg/kg/injection, schedule: Q01DX Z (oral), vehicle: carboxymethylcellulose (CMC)) 101 % of control.
As for `COc1ccc(NC(=O)Nc2cc(Cl)ccc2Cl)cc1`, the T/C is 90 % of control (endpoint: mean survival time, dose: 100.0 mg/kg/injection, schedule: Q04DX003 (ip), vehicle: saline with Tween-80); 92 % of control (endpoint: mean survival time, dose: 200.0 mg/kg/injection, schedule: Q04DX003 (ip), vehicle: saline with Tween-80); 92 % of control (endpoint: mean survival time, dose: 400.0 mg/kg/injection, schedule: Q04DX003 (ip), vehicle: saline with Tween-80).
Regarding `COc1ccc([N+](=O)[O-])cc1NC(=O)Nc1ccc(N(C)C(C)=O)cc1`, the T/C was 105 % of control (endpoint: mean survival time, dose: 50.0 mg/kg/injection, schedule: Q01DX009 (ip), vehicle: Klucel (hydroxypropylcellulose) (HPC)); 111 % of control under setting [6]; 101 % of control under setting [7].
`Cc1cc(C(N)=O)c(C(N)=O)c(=O)[nH]1`: the T/C (endpoint: mean survival time, dose: 75.0 mg/kg/injection, schedule: Q01DX001 (ip), vehicle: water) was 97 % of control and the T/C (endpoint: mean survival time, dose: 150.0 mg/kg/injection, schedule: Q01DX001 (ip), vehicle: water) was 92 % of control.
With `S=C(NCc1ccccc1)[S][Sn]([S]C(=S)NCc1ccccc1)([c]1ccccc1)[c]1ccccc1`, the T/C runs as follows: (endpoint: mean survival time, dose: 5.0 mg/kg/injection, schedule: Q01DX001 (ip), vehicle: steriod suspending solution) 98 % of control; (endpoint: mean survival time, dose: 10.0 mg/kg/injection, schedule: Q01DX001 (ip), vehicle: steriod suspending solution) 97 % of control; (endpoint: mean survival time, dose: 20.0 mg/kg/injection, schedule: Q01DX001 (ip), vehicle: steriod suspending solution) 106 % of control.
Turning to `CC1c2ccccc2N(S(=O)(=O)c2ccccc2)C1C` (configuration not stated), the T/C by setting is: (endpoint: mean survival time, dose: 100.0 mg/kg/injection, schedule: Q01DX009 (ip), vehicle: gum acacia) 108 % of control; (endpoint: mean survival time, dose: 100.0 mg/kg/injection, schedule: Q04DX003 (ip), vehicle: gum acacia) 96 % of control; (endpoint: mean survival time, dose: 200.0 mg/kg/injection, schedule: Q01DX009 (ip), vehicle: gum acacia) 104 % of control; (endpoint: mean survival time, dose: 200.0 mg/kg/injection, schedule: Q04DX003 (ip), vehicle: gum acacia) 102 % of control; (endpoint: mean survival time, dose: 400.0 mg/kg/injection, schedule: Q01DX009 (ip), vehicle: gum acacia) 93 % of control; (endpoint: mean survival time, dose: 400.0 mg/kg/injection, schedule: Q04DX003 (ip), vehicle: gum acacia) 96 % of control.
As for `CC(F)C1CCCC(F)C1` (configuration not stated), the T/C was 103 % of control under setting [1]; 100 % of control under setting [2]; 105 % of control (endpoint: mean survival time, dose: 400.0 mg/kg/injection, schedule: Q01DX001 (ip), vehicle: saline).
`C=CCNC(=S)NCc1ccc(C)cc1`: the T/C is, setting by setting: under setting [6], 96 % of control; under setting [7], 93 % of control.
In the case of `COc1cccc2c1C(=O)c1c(O)c3c(c(O)c1C2=O)CC(O)(C(C)=O)CC3OC1CC(N)C(O)C(C)O1` (configuration not stated), the T/C is, setting by setting: (endpoint: mean survival time, dose: 2.0 mg/kg/injection, schedule: Q01DX001 (ip), vehicle: saline) 121 % of control; (endpoint: mean survival time, dose: 8.0 mg/kg/injection, schedule: Q01DX009 (ip), vehicle: saline) 98 % of control; (endpoint: mean survival time, dose: 16.0 mg/kg/injection, schedule: Q01DX001 (ip), vehicle: saline) 121 % of control; (endpoint: mean survival time, dose: 32.0 mg/kg/injection, schedule: Q01DX001 (ip), vehicle: saline) 100 % of control; (endpoint: median survival time, dose: 6.0 mg/kg/injection, schedule: Q01DX005 (ip), vehicle: other) 117 % of control; (endpoint: median survival time, dose: 6.0 mg/kg/injection, schedule: Q04DX003 (ip), vehicle: water) 122 % of control. Besides, the T/C was 115 % of control (endpoint: median survival time, dose: 6.6 mg/kg/injection, schedule: Q01DX005 (ip), vehicle: water); 115 % of control (endpoint: median survival time, dose: 10.0 mg/kg/injection, schedule: Q04DX003 (ip), vehicle: water); 117 % of control (endpoint: median survival time, dose: 11.0 mg/kg/injection, schedule: Q01DX005 (ip), vehicle: other); 121 % of control (endpoint: median survival time, dose: 11.0 mg/kg/injection, schedule: Q01DX005 (ip), vehicle: water); 117 % of control (endpoint: median survival time, dose: 16.0 mg/kg/injection, schedule: Q01DX005 (ip), vehicle: other); 155 % of control (endpoint: median survival time, dose: 17.0 mg/kg/injection, schedule: Q04DX003 (ip), vehicle: water). Further, the T/C is, setting by setting: (endpoint: median survival time, dose: 21.0 mg/kg/injection, schedule: Q01DX005 (ip), vehicle: other) 122 % of control; (endpoint: median survival time, dose: 31.0 mg/kg/injection, schedule: Q01DX005 (ip), vehicle: other) 121 % of control; (endpoint: median survival time, dose: 48.0 mg/kg/injection, schedule: Q04DX003 (ip), vehicle: water) 115 % of control; (endpoint: median survival time, dose: 80.0 mg/kg/injection, schedule: Q04DX003 (ip), vehicle: water) 157 % of control; (endpoint: median survival time, dose: 83.0 mg/kg/injection, schedule: Q01DX005 (ip), vehicle: water) 100 % of control; (endpoint: median survival time, dose: 133.0 mg/kg/injection, schedule: Q04DX003 (ip), vehicle: water) 115 % of control. Where the note is “endpoint: median survival time, dose: 222.0 mg/kg/injection, schedule: Q04DX003 (ip), vehicle: water”, the T/C is 89 % of control.
On to `N#CC(c1ccccc1)N1CCCCC1` (configuration not stated), for which the T/C by setting is: under setting [3], 101 % of control; under setting [4], 107 % of control; under setting [5], 91 % of control.
Regarding `Cc1cc[n+](CCc2ccccc2)cc1`, the T/C is 97 % of control (endpoint: mean survival time, dose: 12.5 mg/kg/injection, schedule: Q01DX009 (ip), vehicle: carboxymethylcellulose (CMC)); 97 % of control (endpoint: mean survival time, dose: 25.0 mg/kg/injection, schedule: Q01DX009 (ip), vehicle: carboxymethylcellulose (CMC)); 105 % of control (endpoint: mean survival time, dose: 50.0 mg/kg/injection, schedule: Q01DX009 (ip), vehicle: carboxymethylcellulose (CMC)); 100 % of control (endpoint: mean survival time, dose: 50.0 mg/kg/injection, schedule: Q04DX003 (ip), vehicle: saline); 108 % of control (endpoint: mean survival time, dose: 75.0 mg/kg/injection, schedule: Q01DX001 (ip), vehicle: carboxymethylcellulose (CMC)); 104 % of control (endpoint: mean survival time, dose: 75.0 mg/kg/injection, schedule: Q01DX001 (ip), vehicle: other). In addition, the T/C runs as follows: (endpoint: mean survival time, dose: 100.0 mg/kg/injection, schedule: Q04DX003 (ip), vehicle: saline) 92 % of control and 100 % of control; (endpoint: mean survival time, dose: 150.0 mg/kg/injection, schedule: Q01DX001 (ip), vehicle: carboxymethylcellulose (CMC)) 115 % of control; (endpoint: mean survival time, dose: 150.0 mg/kg/injection, schedule: Q01DX001 (ip), vehicle: other) 104 % of control; (endpoint: mean survival time, dose: 300.0 mg/kg/injection, schedule: Q01DX001 (ip), vehicle: other) 105 % of control.
For `O=S(=O)(Nc1ccccc1)c1ccccc1C#Cc1ccccc1`, the T/C (endpoint: mean survival time, dose: 100.0 mg/kg/injection, schedule: Q01DX001 (ip), vehicle: steriod suspending solution) is 105 % of control; the T/C (endpoint: mean survival time, dose: 200.0 mg/kg/injection, schedule: Q01DX001 (ip), vehicle: steriod suspending solution) was 100 % of control; the T/C (endpoint: mean survival time, dose: 400.0 mg/kg/injection, schedule: Q01DX001 (ip), vehicle: steriod suspending solution) is 97 % of control.
